In patent publication US11730720B2, “ALK5 inhibitors” (THERAVANCE BIOPHARMA R&D IP, LLC, priority 2018, dated 2023):

Legend:
[1] = tested on: TGF-β-stimulated SMAD3 phosphorylation in BEAS-2B cells; assay: Cellular ALK5 potency assay, inhibition of TGF-β stimulated pSMAD3 formation in BEAS-2B cells; type: cell-based; conditions: Homo sapiens, inhibition of TGF-β (10 ng/mL) stimulated pSMAD3 formation, 1 hour compound incubation, read-out: BEAS2B pIC50 (converted)
Method: Example 255: Cellular ALK5 Potency Assay to Measure pIC50, Inhibition of TGF-β Stimulated pSMAD3 Formation in BEAS-2B Cells
The potency of compounds of the present disclosure for inhibition of TGF-β-stimulated SMAD3 phosphorylation was measured in BEAS-2B cells, a human lung epithelial cell line. TGF-β signals through activin receptor-like kinase 5 (ALK5) immediately prior to SMAD3 phosphorylation.
BEAS-2B cells were grown using 50% DMEM (Life Technologies) and 50% F-12 (Life Technologies) media, supplemented with 10% Fetal Bovine Serum (ATCC), 25 mM HEPES (Life Technologies), and 1×Pen-Strep (Life Technologies). Cells were cultured in a humidified incubator set at 37° C., 5% CO2, and trypsonized using 0.25% Trypsin with 0.5% polyvinylpyrrolidone (PVP).
For the assay, BEAS-2B cells were seeded at 7,500 cells/well (25 μL/well) in a 384-well plate and cultured overnight. Before dosing, growth media was aspirated and the wells were rinsed with HBSS Buffer (HBSS with Calcium and Magnesium, Life Technologies) supplemented with 25 mM HEPES (Life Technologies) and 1% Bovine Serum Albumin (Roche). Compounds were serially diluted in DMSO, then further diluted with supplemented HBSS Buffer (50 μL/well) to create a compound plate 3× of the final assay concentration, at 0.3% DMSO. The diluted compounds were then added to the cells (8 μL/well) and incubated at 37° C., 5% CO2 for 1 hour. After the compound incubation, TGF-β (R&D Systems) reconstituted in supplemented HBSS Buffer was added to the cells ([…], final concentration 10 ng/mL) and incubated for a further 30 minutes, after which the cells were immediately lysed with AlphaLISA lysis buffer (PerkinElmer). AlphaLISA Acceptor and Detector beads (PerkinElmer) were added 2 hours apart, then incubated overnight to be read the next day. The potency of the compound was determined through analysis of dose-dependent quantified changes in pSMAD3 signal from baseline (non-compound treated TGF-β stimulated cells). Data are expressed as pIC50 (negative decadic logarithm IC50) values.

[2] = molecular target: T1, recombinant human ALK5 (TGF-βR1) protein (Homo sapiens, UniProt P36897); assay: Biochemical ALK5 (TGF-βR1) assay to measure pKi (LANCE Ultra ULight kinase assay); conditions: apparent pKi, converted from pIC50 using the Cheng-Prusoff equation
T1 construct: purchased Life Technologies PR9075A
T1 sequence (P36897 34-503): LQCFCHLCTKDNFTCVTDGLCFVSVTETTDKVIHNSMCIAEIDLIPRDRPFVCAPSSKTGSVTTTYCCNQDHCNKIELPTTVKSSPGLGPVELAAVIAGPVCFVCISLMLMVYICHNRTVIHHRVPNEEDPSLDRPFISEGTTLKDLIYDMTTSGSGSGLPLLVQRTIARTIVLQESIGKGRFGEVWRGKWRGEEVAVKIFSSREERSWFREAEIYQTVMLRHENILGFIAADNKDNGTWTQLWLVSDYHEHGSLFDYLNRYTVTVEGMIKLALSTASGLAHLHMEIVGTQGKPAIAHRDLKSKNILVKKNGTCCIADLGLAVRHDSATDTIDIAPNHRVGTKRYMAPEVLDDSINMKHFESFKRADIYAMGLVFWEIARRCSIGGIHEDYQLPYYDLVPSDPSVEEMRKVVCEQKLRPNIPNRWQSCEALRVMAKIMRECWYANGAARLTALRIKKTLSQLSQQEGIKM
Method: Example 254: Biochemical ALK5 (TGF-βR1) Assay to Measure pKi
The assays were performed in a 384-well plate (24 columns×16 wells/rows). An Echo® 550 Liquid Handler (Labcyte) was used to prepare various intermediate concentrations of compounds of the present disclosure in 100% DMSO. From the intermediate concentrations, a range of concentrations (from 10 μM to 25 pM corresponding to volumes up to 105 nL) were prepared and ejected into a final assay plate to be used to create individual dose response curves for each of the subject compounds. To a separate column within the assay plate, 105 nL of DMSO in each well was used to establish a maximum assay signal. Additionally, 105 nL of 100 μM SD-208, a selective TGF-βR1 inhibitor (Catalog #S7624, Selleck Chemicals), was used in another column of wells to establish a minimal assay signal.
With a multidrop dispenser, 8 μL of enzyme mixture (1.25× final) was added to each well. The enzyme mixture consisted of 250 pM ALK5 enzyme and 62.5 nM peptide substrate (LANCE® (lanthanide chelate excite) Ultra ULight™-DNA Topoisomerase 2-alpha (Thr1342)) prepared in assay buffer (50 mM HEPES, 10 mM MgCl2, 1 mM EGTA, 0.01% Tween-20, pH 7.5 at room temperature) with 2 mM DTT added prior to use. The plate was then sealed with an adhesive seal and allowed to equilibrate for 60 minutes at room temperature.
Next, 2 μL of 125 μM ATP (5× final, 125 μM ATP prepared in assay buffer with 2 mM DTT) was added to the incubated mixtures, covered with a MicroClime® Environmental Lid (Product No. LLS-0310, Labcyte) and immediately transferred to 37° C. The reactions were allowed to proceed at 37° C. for 60 minutes before terminating with the addition of 10 μL of detection antibody (LANCE® (lanthanide chelate excite) Ultra Europium-anti-phospo-DNA Topoisomerase 2-alpha (Thr1342)) in detection mixture (12 mM EDTA, 4 nM detection antibody prepared in detection buffer (50 mM Tris-HCl, 150 mM NaCl, 0.5% BSA (Fraction V), pH 7.0)) at room temperature. The plate was then read on a Perkin Elmer EnVision Plate Reader using europium specific reader settings with excitation and emission wavelengths set to 320 or 340 nm and 665 nm, respectively.
For dose-response analyses, percent inhibition versus compound concentrations were plotted, and pIC50 values were determined from a 4-parameter robust fit model with GraphPad Prism V5 Software (GraphPad Software, Inc., La Jolla, Calif.). This model obtains pIC50 values by fitting the sigmodial dose-response (variable slope) equation to the data. Results were expressed as pIC50 (negative logarithm of IC50) and subsequently converted to pKi (negative logarithm of dissociate constant, K) using the Cheng-Prusoff equation.
The higher the value of pKi (lower value of Ki), the greater the inhibition of ALK5 activity.

Compound | Ki [2] [nM] | IC50 [1] [nM]
Fc1ccc(Cl)cc1-c1n[nH]cc1-c1ccc2ncc(NCCN3CCCC3)cc2n1 [Compound 1-14, 6-[3-(5-chloro-2-fluoro-phenyl)-1H-pyrazol-4-yl]-N-(2-pyrrolidin-1-ylethyl)-1,5-naphthyridin-3-amine] | 0.0398 to 0.316 | ≤ 20
O=C(O)[C@H]1CN(c2cnc3ccc(-c4c[nH]nc4-c4cc(Cl)ccc4F)nc3c2)CCN1 [Compound 1-130, (2R)-4-[6-[3-(5-chloro-2-fluoro-phenyl)-1H-pyrazol-4-yl]-1,5-naphthyridin-3-yl]piperazine-2-carboxylic acid] | 0.398 to 3.16 | 200 to 1260
CC1(C)CCCN1CCNc1cnc2ccc(-c3nc[nH]c3-c3cc(Cl)ccc3F)nc2c1 [Compound 2-3, 6-[5-(5-chloro-2-fluoro-phenyl)-1H-imidazol-4-yl]-N-[2-(2,2-dimethylpyrrolidin-1-yl)ethyl]-1,5-naphthyridin-3-amine] | 0.0398 to 0.316 | 25.1 to 158
CNC(=O)C1CN(c2cnc3ccc(-c4c[nH]nc4-c4cc(Cl)ccc4F)nc3c2)CCN1C(C)C (racemic) [Compound 1-78, rac-(2R)-4-[6-[3-(5-chloro-2-fluoro-phenyl)-1H-pyrazol-4-yl]-1,5-naphthyridin-3-yl]-1-isopropyl-N-methyl-piperazine-2-carboxamide] | 0.0398 to 0.316 | 25.1 to 158
Fc1ccc(Cl)cc1-c1n[nH]cc1-c1ccc2ncc(-c3nnn4c3CNCC4)cc2n1 [Compound 1-109, 2-[3-(5-chloro-2-fluoro-phenyl)-1H-pyrazol-4-yl]-7-(4,5,6,7-tetrahydrotriazolo[1,5-a]pyrazin-3-yl)-1,5-naphthyridine] | 0.0398 to 0.316 | 25.1 to 158
CNC1CCN(c2cnc3ccc(-c4c[nH]nc4-c4cc(Cl)ccc4F)nc3c2)C1 (stereo not drawn) [Compound 1-56, 1-[6-[3-(5-chloro-2-fluoro-phenyl)-1H-pyrazol-4-yl]-1,5-naphthyridin-3-yl]-N-methyl-pyrrolidin-3-amine] | 0.0398 to 0.316 | ≤ 20
CNCCn1cc(-c2cnc3ccc(-c4nc[nH]c4-c4cc(Cl)ccc4F)nc3c2)cn1 [Compound 2-19, 2-[4-[6-[5-(5-chloro-2-fluoro-phenyl)-1H-imidazol-4-yl]-1,5-naphthyridin-3-yl]pyrazol-1-yl]-N-methyl-ethanamine] | 0.0398 to 0.316 | 25.1 to 158
Fc1ccc(Cl)cc1-c1n[nH]cc1-c1ccc2ncc(NCC3CCNCC3)cc2n1 [Compound 1-27, 6-[3-(5-chloro-2-fluoro-phenyl)-1H-pyrazol-4-yl]-N-(4-piperidylmethyl)-1,5-naphthyridin-3-amine] | ≤ 0.0316 | 25.1 to 158
CN(CC1CNC1)c1cnc2ccc(-c3c[nH]nc3-c3cc(Cl)ccc3F)nc2c1 [Compound 1-41, N-(azetidin-3-ylmethyl)-6-[3-(5-chloro-2-fluoro-phenyl)-1H-pyrazol-4-yl]-N-methyl-1,5-naphthyridin-3-amine] | 0.0398 to 0.316 | 25.1 to 158

More lines, main results first:

Ki [2] [nM] | Compound | IC50 [1] [nM]
0.0398 to 0.316 | CNCCn1cc(-c2cnc3ccc(-c4c(-c5cc(Cl)c(F)cc5F)[nH]c5cccnc45)nc3c2)cn1 [Compound 26-1, 2-[4-[6-[2-(5-chloro-2,4-difluoro-phenyl)-1H-pyrrolo[3,2-b]pyridin-3-yl]-1,5-naphthyridin-3-yl]pyrazol-1-yl]-N-methyl-ethanamine] | 200 to 1260
3.98 to 31.6 | O=C(O)CC1CNCCN1c1cnc2ccc(-c3nc[nH]c3-c3cc(Cl)ccc3F)nc2c1 (stereo not drawn) [Compound 2-32, 2-[1-[6-[5-(5-chloro-2-fluoro-phenyl)-1H-imidazol-4-yl]-1,5-naphthyridin-3-yl]piperazin-2-yl]acetic acid] | 200 to 1260
0.0398 to 0.316 | CC(C)N1CC=C(c2cnc3ccc(-c4c[nH]nc4-c4cc(Cl)c(F)cc4F)nc3c2)C1 [Compound 6-44, 2-[3-(5-chloro-2,4-difluoro-phenyl)-1H-pyrazol-4-yl]-7-(1-isopropyl-2,5-dihydropyrrol-3-yl)-1,5-naphthyridine] | ≤ 20
0.0398 to 0.316 | CC(C)N1CCN(CCNc2cnc3ccc(-c4c[nH]nc4-c4cc(Cl)c(F)cc4F)nc3c2)CC1 [Compound 6-1, 6-(3-(5-chloro-2,4-difluorophenyl)-1H-pyrazol-4-yl)-N-(2-(4-isopropylpiperazin-1-yl)ethyl)-1,5-naphthyridin-3-amine] | 25.1 to 158
0.398 to 3.16 | O=C(O)[C@H]1CN(c2cnc3ccc(-c4nc[nH]c4-c4cc(Cl)c(F)cc4F)nc3c2)CCN1 [Compound 7-3, (R)-4-(6-(5-(5-chloro-2,4-difluorophenyl)-1H-imidazol-4-yl)-1,5-naphthyridin-3-yl)piperazine-2-carboxylic acid] | 25.1 to 158
0.0398 to 0.316 | COC(=O)CC1CNCCN1CCNc1cnc2ccc(-c3nc[nH]c3-c3cc(Cl)ccc3F)nc2c1 (stereo not drawn) [Compound 2-35, methyl 2-[1-[2-[[6-[5-(5-chloro-2-fluoro-phenyl)-1H-imidazol-4-yl]-1,5-naphthyridin-3-yl]amino]ethyl]piperazin-2-yl]acetate] | 25.1 to 158
0.0398 to 0.316 | Fc1ccc(Cl)cc1-c1nc2ccccn2c1-c1ccc2ncc(-c3cnc4n3CCNC4)cc2n1 [Compound 3-8, 2-[2-(5-chloro-2-fluoro-phenyl)imidazo[1,2-a]pyridin-3-yl]-7-(5,6,7,8-tetrahydroimidazo[1,2-a]pyrazin-3-yl)-1,5-naphthyridine] | 25.1 to 158
0.398 to 3.16 | Fc1ccc(Cl)cc1-c1nnn(Cc2ccccc2)c1-c1ccc2ncccc2n1 [Compound 4-1, 2-(1-benzyl-4-(5-chloro-2-fluorophenyl)-1H-1,2,3-triazol-5-yl)-1,5-naphthyridine] | 200 to 1260
0.0398 to 0.316 | Fc1ccc(Cl)cc1-c1[nH]cnc1-c1ccc2ncc(-c3cc4n(n3)CCNC4)cc2c1 [Compound 17-11, 6-[5-(5-chloro-2-fluoro-phenyl)-1H-imidazol-4-yl]-3-(4,5,6,7-tetrahydropyrazolo[1,5-a]pyrazin-2-yl)quinoline] | ≤ 20
